A short description of test [1]: Antiproliferative activity against human PANC1 cells at 30 uM after 72 hrs by MTT assay. Type of test: functional. The following applies: PANC-1, 72 h.
The nature of test [2]: Antiproliferative activity against human PANC1 cells after 72 hrs by MTT assay. Type of test: functional, cell-based. The settings on record: PANC-1, 72 h. (Tetrazolium assays rely on reduction of a dye to a coloured formazan, in cell work by metabolically active cells.)
Test [3] relates to MCF7. Briefly: Antiproliferative activity against human MCF7 cells at 30 uM after 72 hrs by MTT assay. The settings on record: MCF7, 72 h. Type of test: functional.
Test [4] is described as follows: Antiproliferative activity against human HL60 cells at 30 uM after 72 hrs by MTT assay. Type of test: functional. The following applies: HL-60, 72 h.
Test [5] in a line: Antiproliferative activity against human DU145 cells at 30 uM after 72 hrs by MTT assay. Type of test: functional. The settings on record: DU-145, 72 h.
In test [6] the test system is HT-29. Briefly: Antiproliferative activity against human HT-29 cells at 30 uM after 72 hrs by MTT assay. Type of test: functional. The settings on record: HT-29, 72 h.
In test [7] the test system is HT-29. Briefly: Antiproliferative activity against human HT-29 cells after 72 hrs by MTT assay. Type of test: functional, cell-based. The settings on record: HT-29, 72 h.
Test [8] concerns A549. Briefly: Antiproliferative activity against human A549 cells at 30 uM after 72 hrs by MTT assay. Type of test: functional. The settings on record: A549, 72 h.
For test [9], the system named is A549. Briefly: Antiproliferative activity against human A549 cells after 72 hrs by MTT assay. Type of test: functional, cell-based. The following applies: A549, 72 h.
Test [10] in a line: Antiproliferative activity against human DU145 cells after 72 hrs by MTT assay. The settings on record: DU-145, 72 h. Type of test: functional, cell-based.
The nature of test [11]: Antiproliferative activity against human HL60 cells after 72 hrs by MTT assay. Type of test: functional, cell-based. The following applies: HL-60, 72 h.
The subject of test [12] is MCF7. Briefly: Antiproliferative activity against human MCF7 cells after 72 hrs by MTT assay. Type of test: functional, cell-based. The following applies: MCF7, 72 h.

One may read the inhibition as the change of the read-out against control, counted positive when it falls. Broadly, the IC50 is the concentration that inhibits the measured activity by half. Lower therefore signals greater potency in that assay. Turning to `CC(C)(C)OC(=O)Nc1ccc(OCCOc2no[n+]([O-])c2S(=O)(=O)c2ccccc2)c(C(=O)Oc2ccc(-c3cc(=S)ss3)cc2)c1`, the inhibition at 30 µM in [1] was found to be 97.1%; in [3], 83.1%; in test [4] it was 84.6%; in test [5], 61.6%; in test [6] it was 103%; in test [8], 88.5%. Moreover, the figures for the 50% inhibitory concentration (IC50) in test [2] and in [7] were 1.45 µM and 0.256 µM, respectively.

As to `O=C(Nc1ccc(OC(=O)CCCO[N+](=O)[O-])c(C(=O)Oc2ccc(-c3cc(=S)ss3)cc2)c1)Nc1ccc(F)cc1F`, the inhibition at 30 µM was -14.8% in test [1]; -6.87% in test [3]; 0.43% in [4]; -7.47% in [5]; -6.41% in [6]; -28% in test [8].

For the molecule `Nc1ccc(OCCOc2no[n+]([O-])c2S(=O)(=O)c2ccccc2)c(C(=O)Oc2ccc(-c3cc(=S)ss3)cc2)c1`, the inhibition at 30 µM worked out at 96.6% in test [1]; 90.1% in [3]; 92.3% in test [4]; 93.8% in test [5]; 102% in [6]; 100% in test [8]. Also, the IC50 in test [2] turned out to be 1.86 µM; in test [9], 4.17 µM; in [10], 1.27 µM; in [11] it was 1.88 µM; in test [7], 0.769 µM; in test [12], 2.68 µM.

With `CC(C)(C)OC(=O)Nc1ccc(OCCCOc2no[n+]([O-])c2S(=O)(=O)c2ccccc2)c(C(=O)Oc2ccc(-c3cc(=S)ss3)cc2)c1`, the inhibition at 30 µM was 97.4% in test [1]; 25.2% in test [3]; 84% in [4]; 67.9% in test [5]; 103% in [6]; -23.8% in test [8]. Moreover, the figures for the IC50 in test [2] and in test [7] were 3.02 µM and 0.926 µM, respectively.

`O=C(Nc1cccc(C(F)(F)F)c1)Nc1ccc(OC(=O)CCCO[N+](=O)[O-])c(C(=O)Oc2ccc(-c3cc(=S)ss3)cc2)c1`: the inhibition at 30 µM was -5.71% in test [1]; -6.78% in test [3]; 14.1% in test [4]; -14.2% in test [5]; 13.2% in [6]; -22.1% in test [8].

As for `COc1ccc(NC(=O)Nc2ccc(OC(=O)CCCO[N+](=O)[O-])c(C(=O)Oc3ccc(-c4cc(=S)ss4)cc3)c2)cc1`, the inhibition at 30 µM was 2.19% in [1]; 16% in test [3]; 8.3% in [4]; -6.39% in test [5]; 12.1% in [6]; 3.19% in test [8].

Take `Nc1ccc(OCCOCCOc2no[n+]([O-])c2S(=O)(=O)c2ccccc2)c(C(=O)Oc2ccc(-c3cc(=S)ss3)cc2)c1`: the inhibition at 30 µM turned out to be 97.1% in test [1]; 90% in [3]; 84.4% in test [4]; 63.2% in test [5]; 101% in [6]; 62.8% in [8]. Moreover, the 50% inhibitory concentration (IC50) in test [2] worked out at 8 µM; in test [7] it was 5.44 µM; in test [12], 11.9 µM.

Turning to `O=C(Nc1ccc(F)cc1)Nc1ccc(OC(=O)CCCO[N+](=O)[O-])c(C(=O)Oc2ccc(-c3cc(=S)ss3)cc2)c1`, the inhibition at 30 µM in test [1] is -12.9%; in test [3], 19.1%; in [4] it was 8.68%; in test [5], 15.3%; in [6] it was 6.92%; in test [8] it was -27.2%.

For `Nc1ccc(OCCCOc2no[n+]([O-])c2S(=O)(=O)c2ccccc2)c(C(=O)Oc2ccc(-c3cc(=S)ss3)cc2)c1`, the inhibition at 30 µM turned out to be 97.5% in [1]; 92.1% in test [3]; 87.3% in [4]; 94.8% in [5]; 103% in test [6]; 100% in test [8]. The half-maximal inhibitory concentration (IC50) amounted to 0.971 µM in test [2]; 3.27 µM in test [9]; 2.24 µM in [10]; 0.559 µM in test [7]; 3.05 µM in test [12].

Regarding `Nc1ccc(OC(=O)CCCO[N+](=O)[O-])c(C(=O)Oc2ccc(-c3cc(=S)ss3)cc2)c1`, the inhibition at 30 µM is -10.5% in test [1]; -5.55% in test [3]; 8.73% in [4]; -7.67% in [5]; -13.3% in test [6]; -18.4% in test [8].

Regarding `O=C(Nc1cccc(Cl)c1)Nc1ccc(OC(=O)CCCO[N+](=O)[O-])c(C(=O)Oc2ccc(-c3cc(=S)ss3)cc2)c1`, the inhibition at 30 µM in test [1] was -17.3%; in test [3], 6.1%; in test [4], 10.9%; in [5], 5.49%; in [6] it was 21.5%; in test [8], -23.3%.

For `Cc1cccc(NC(=O)Nc2ccc(OC(=O)CCCO[N+](=O)[O-])c(C(=O)Oc3ccc(-c4cc(=S)ss4)cc3)c2)c1`, the inhibition at 30 µM in test [1] is -14.2%; in test [3], 13.9%; in test [4], 7.34%; in test [5], -19.3%; in test [6] it was 9.56%; in test [8], -19.8%.

`CC(C)(C)OC(=O)Nc1ccc(OCCOCCOc2no[n+]([O-])c2S(=O)(=O)c2ccccc2)c(C(=O)Oc2ccc(-c3cc(=S)ss3)cc2)c1`: the inhibition at 30 µM worked out at 97.9% in test [1]; 63.1% in [3]; 84.5% in [4]; 54.7% in test [5]; 103% in test [6]; 18.7% in test [8]. For the same molecule, the IC50 in test [2] came to 2.8 µM; in [7] it was 0.536 µM.

`COc1cc2/c(=N/c3ccc(Br)cc3F)nc[nH]c2cc1OCC1CCN(C)CC1` [VANDETANIB]: the concentration for half-maximal inhibition (IC50) stood at 4.11 µM in test [2]; 2.63 µM in test [9]; 1.97 µM in [10]; 1.49 µM in test [11]; 1.93 µM in [7]; 3.54 µM in test [12].

For the origin of these results see ChEMBL document CHEMBL3792336, “Synthesis and antitumor activity of ATB-429 derivatives containing a nitric oxide-releasing moiety” (Bioorg Med Chem Lett, 2016).
